pEC50: −log10 of the molar value. Like-named read-outs stand apart in the source and are kept apart here.
Key:
CD69 = test: Induction of CD69 in human whole blood; type: cell-based; settings: 17 h, CD69 surface staining, 100% set to 1 uM resiquimod
Procedure: The induction of Type I interferon (IFN) MX-1 genes and the B-cell activation marker CD69 are downstream events that occur upon activation of the TLR7 pathway. The following is a human whole blood assay that measures their induction in response to a TLR7 agonist.
Heparinized human whole blood was harvested from human subjects and treated with test TLR7 agonist compounds at 1 mM. The blood was diluted with RPMI 1640 media and Echo was used to predot 10 nL per well giving a final concentration of 1 uM (10 nL in 10 uL of blood). After mixing on a shaker for 30 sec, the plates were covered and placed in a 37° C. chamber for o/n=17 hrs. Fixing/lysis buffer was prepared (5×->1× in H2O, warm at 37° C.; Cat #BD 558049) and kept the perm buffer (on ice) for later use.
For surface markers staining (CD69): prepared surface Abs: 0.045 ul hCD14-FITC (ThermoFisher Cat #MHCD1401)+0.6 ul hCD19-ef450 (ThermoFisher Cat #48-0198-42)+1.5 ul hCD69-PE (cat #BD555531)+0.855 ul FACS buffer. Added 3 ul/well, spin1000 rpm for 1 min and mixed on shaker for 30 sec, put on ice for 30 mins. Stop stimulation after 30 minutes with 70 uL of prewarmed 1× fix/lysis buffer and use Feliex mate to resuspend (15 times, change tips for each plate) and incubate at 37C for 10 minutes.
Centrifuge at 2000 rpm for 5 minutes aspirate with HCS plate washer, mix on shaker for 30 sec and then wash with 70 uL in dPBS and pelleted 2×s (2000 rpm for 5 min) and 50 ul wash in FACS buffer pelleted 1×s(2000 rpm for 5 min). Mix on shaker for 30 sec. For Intracellular markers staining (MX-1): Add 50 ul of BD Perm buffer III and mix on shaker for 30 sec. Incubate on ice for 30 minutes (in the dark). Wash with 50 uL of FACS buffer 2× (spin @2300 rpm×5 min after perm) followed by mixing on shaker for 30 sec. Resuspended in 20 ul of FACS buffer containing MX1 antibody ( ) (4812)-Alexa 647: Novus Biologicals #NBP2-43704AF647) 20 ul FACS bf+0.8 ul hlgG+0.04 ul MX-1. Spin 1000 rpm for 1 min, mix on shaker for 30se and the samples were incubated at RT in the dark for 45 minutes followed by washing 2×FACS buffer (spin @2300 rpm×5 min after perm). Resuspend 20 ul (35 uL total per well) of FACS buffer and cover with foil and place in 4° C. to read the following day. Plates were read on iQuePlus. The results were loaded into toolset and IC50 curves are generated in curve master. The y-axis 100% is set to 1 uM of resiquimod.

human TLR7 = biological target: T1, human TLR7 (Homo sapiens, UniProt Q9NYK1); test: Human TLR7 agonist activity reporter assay (HEK-Blue TLR7 cells, SEAP reporter); type: cell-based; settings: 18 h treatment
T1 construct: host or cells: HEK-Blue TLR7 cells (engineered human embryonic kidney cells)
T1 sequence (Q9NYK1 27-1049): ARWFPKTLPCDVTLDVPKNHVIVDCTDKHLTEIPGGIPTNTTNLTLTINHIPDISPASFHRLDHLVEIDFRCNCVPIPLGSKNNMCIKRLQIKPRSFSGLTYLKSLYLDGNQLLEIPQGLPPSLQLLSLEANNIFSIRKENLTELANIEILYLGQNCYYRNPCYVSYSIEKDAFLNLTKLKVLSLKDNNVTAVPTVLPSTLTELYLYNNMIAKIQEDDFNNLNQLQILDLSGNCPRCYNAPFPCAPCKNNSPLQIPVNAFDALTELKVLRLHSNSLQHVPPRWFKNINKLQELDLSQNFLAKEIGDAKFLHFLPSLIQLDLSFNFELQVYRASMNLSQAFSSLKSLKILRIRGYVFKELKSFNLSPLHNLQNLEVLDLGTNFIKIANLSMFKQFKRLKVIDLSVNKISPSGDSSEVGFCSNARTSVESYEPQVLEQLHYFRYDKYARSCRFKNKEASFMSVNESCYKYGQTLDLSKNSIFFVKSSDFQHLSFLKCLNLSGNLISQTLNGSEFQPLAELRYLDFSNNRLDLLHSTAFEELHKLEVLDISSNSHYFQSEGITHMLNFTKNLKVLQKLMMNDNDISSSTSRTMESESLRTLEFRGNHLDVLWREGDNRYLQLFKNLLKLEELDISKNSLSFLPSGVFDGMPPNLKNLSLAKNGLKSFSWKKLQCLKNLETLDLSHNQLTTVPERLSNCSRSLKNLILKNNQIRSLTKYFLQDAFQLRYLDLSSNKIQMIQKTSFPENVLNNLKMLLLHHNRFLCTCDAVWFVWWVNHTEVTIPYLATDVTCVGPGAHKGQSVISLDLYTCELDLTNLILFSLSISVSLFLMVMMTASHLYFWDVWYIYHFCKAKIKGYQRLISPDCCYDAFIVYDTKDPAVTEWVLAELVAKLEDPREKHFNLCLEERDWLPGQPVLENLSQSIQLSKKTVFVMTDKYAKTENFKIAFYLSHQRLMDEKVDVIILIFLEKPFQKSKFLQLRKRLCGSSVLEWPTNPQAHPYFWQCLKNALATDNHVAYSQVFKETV
Procedure: This procedure describes a method for assaying human TLR7 (hTLR7) agonist activity of the compounds disclosed in this specification.
HEK-Blue™ TLR7 cells were added to each well of a 384-well tissue-culture plate (15,000 cells per well) and incubated 16-18 h at 37° C., 5% CO2. Compounds (100 nl) were dispensed into wells containing the HEK-Blue™ TLR cells and the treated cells were incubated at 37° C., 5% CO2. After 18 h treatment ten microliters of freshly-prepared Quanti-Blue™ reagent (Invivogen) was added to each well, incubated for 30 min (37° C., 5% CO2) and SEAP levels measured using an Envision plate reader (OD=620 nm). The half maximal effective concentration values (EC50; compound concentration which induced a response halfway between the assay baseline and maximum) were calculated.

[1] = average where assay repeated, Table A1, read-out: hWB CD69 EC50
[2] = average where assay repeated, Table A1, read-out: hTLR7 Agonism EC50
[3] = Table A2, read-out: hWB CD69 EC50
[4] = Table A2, read-out: hTLR7 Agonism EC50

| Compound | pEC50 (CD69; [1]) | pEC50 (human TLR7; [2]) | pEC50 (CD69; [3]) | pEC50 (human TLR7; [4]) |
| --- | --- | --- | --- | --- |
| CCCCNc1nc(N)nc2cnn(Cc3cc(CN(C)C(=O)CC(C)(C)O)ccc3OC)c12 [Compound 148, N-[(3-{[5-amino-7-(butyl-amino)-1H-pyrazolo[4,3-d]pyrimidin-1-yl]methyl}-4-methoxyphenyl)methyl]-3-hydroxy-N,3-dimethyl-butanamide] | ≤ 6.00 | 6.18 | – | – |
| N7-butyl-1-[(2-methoxy-5- {[(1S,4S)-5-methyl-2,5- diazabicyclo[2.2.1]heptan-2- yl]methyl}phenyl)methyl]- 1H-pyrazolo[4,3-d] pyrimidine-5,7-diamine [Compound 142] | 7.53 | 7.03 | – | – |
| CCCCNc1nc(N)nc2cnn(Cc3cc(CN(C)CCNC)ccc3OC)c12 [Compound 126, N7-butyl-1-{[2-methoxy-5-({methyl[2-(methylamino)-ethyl]amino}methyl)phenyl]methyl}-1H-pyrazolo[4,3-d]pyrimidine-5,7-diamine] | 7.00 | 6.80 | – | – |
| CCCCNc1nc(N)nc2cnn(Cc3cc(CNC4CCCC4)ccc3OC)c12 [Compound 120] | 6.54 | 6.26 | – | – |
| CCCCNc1nc(N)nc2cnn(Cc3cc(COCCC(C)(C)O)ccc3OC)c12 [Compound 144, 4-[(3-{[5-amino-7-(butyl-amino)-1H-pyrazolo[4,3-d]pyrimidin-1-yl]methyl}-4-methoxyphenyl)methoxy]-2-methylbutan-2-ol] | ≤ 6.00 | 6.25 | – | – |
| CCCCNc1nc(N)nc2cnn(Cc3cc(CN4CC5COCC5C4)ccc3OC)c12 (stereo not drawn) [Compound 123, N7-butyl-1-{[5-({hexa-hydro-1H-furo[3,4-c]pyrrol-5-yl}methyl)-2-methoxyphenyl]methyl}-1H-pyrazolo[4,3-d] pyrimidine-5,7-diamine] | 7.05 | 6.80 | – | – |
| CCC[C@@H](CCO)Nc1nc(N)nc2cnn(Cc3cc(CN4CCN(CCO)CC4)c(F)cc3OC)c12 [Compound 168, (3S)-3-({5-amino-1-[(4-fluoro-5-{[4-(2-hydroxyethyl)piperazin-1-yl]methyl}-2-methoxyphenyl)-methyl]-1H-pyrazolo[4,3-d]pyrimidin-7-yl}amino)hexan-1-ol] | – | – | 7.41 | 7.20 |
| CCCCNc1nc(N)nc2cnn(Cc3cc(CNCC4(N)CCC4)ccc3OC)c12 [Compound 129, 1-{[5-({[(1-aminocyclo-butyl)methyl]amino}methyl)-2-methoxyphenyl]methyl}-N7-butyl-1H-pyrazolo[4,3-d]pyrimidine-5,7-diamine] | 7.22 | 6.23 | – | – |
| COc1ccc(CN2CC(OC)C2)cc1Cn1ncc2nc(N)nc(NCC3CC4(CC4)C3)c21 [Compound 149, 1-({2-methoxy-5-[(3-methoxyazetidin-1-yl)methyl]-phenyl}methyl)-N7-({spiro-[2.3]hexan-5-yl}methyl)-1H-pyrazolo[4,3-d]pyrimidine-5,7-diamine] | 6.28 | 6.57 | – | – |
| CCC[C@@H](CCO)Nc1nc(N)nc2cnn(Cc3cc(CN4CCN(C)CC4)ncc3OC)c12 [Compound 177, (3S)-3-{[5-amino-1-({5-methoxy-2-[(4-methylpiperazin-1-yl)methyl]-pyridin-4-yl}methyl)-1H-pyrazolo[4,3-d]pyrimidin-7-yl]amino}hexan-1-ol] | – | – | 7.46 | 6.12 |
| CCCCNc1nc(N)nc2cnn(Cc3cc(CN4CCN(C5CCC5)CC4)ccc3OC)c12 [Compound 130, N7-butyl-1-({5-[(4-cyclobutylpiperazin-1-yl)methyl]-2-methoxy-phenyl}methyl)-1H-pyrazolo[4,3-d]pyrimidine-5,7-diamine] | 6.29 | 7.30 | – | – |
| CCC[C@@H](CCO)Nc1nc(N)nc2cnn(Cc3cc(CN4CCN(CCO)CC4)ccc3OC)c12 [Compound 156, (3S)-3-({5-amino-1-[(5-{[4-(2-hydroxyethyl)piperazin-1-yl]methyl}-2-methoxy-phenyl)methyl]-1H-pyrazolo[4,3-d]pyrimidin-7-yl}amino)hexan-1-ol] | 7.13 | 7.24 | – | – |
